Target: T1, AhR (Homo sapiens, UniProt P35869)
T1 construct: The HepG2 CYP1A1-Luc cells do express basal luciferase activity that can be increased via potent AhR agonists or decreased via potent AhR antagonists; endogenous in cells; host or cells: HepG2 (DSMZ #ACC 180) stably carrying a human CYP1A1 promoter-firefly luciferase reporter
T1 sequence (P35869 11-848): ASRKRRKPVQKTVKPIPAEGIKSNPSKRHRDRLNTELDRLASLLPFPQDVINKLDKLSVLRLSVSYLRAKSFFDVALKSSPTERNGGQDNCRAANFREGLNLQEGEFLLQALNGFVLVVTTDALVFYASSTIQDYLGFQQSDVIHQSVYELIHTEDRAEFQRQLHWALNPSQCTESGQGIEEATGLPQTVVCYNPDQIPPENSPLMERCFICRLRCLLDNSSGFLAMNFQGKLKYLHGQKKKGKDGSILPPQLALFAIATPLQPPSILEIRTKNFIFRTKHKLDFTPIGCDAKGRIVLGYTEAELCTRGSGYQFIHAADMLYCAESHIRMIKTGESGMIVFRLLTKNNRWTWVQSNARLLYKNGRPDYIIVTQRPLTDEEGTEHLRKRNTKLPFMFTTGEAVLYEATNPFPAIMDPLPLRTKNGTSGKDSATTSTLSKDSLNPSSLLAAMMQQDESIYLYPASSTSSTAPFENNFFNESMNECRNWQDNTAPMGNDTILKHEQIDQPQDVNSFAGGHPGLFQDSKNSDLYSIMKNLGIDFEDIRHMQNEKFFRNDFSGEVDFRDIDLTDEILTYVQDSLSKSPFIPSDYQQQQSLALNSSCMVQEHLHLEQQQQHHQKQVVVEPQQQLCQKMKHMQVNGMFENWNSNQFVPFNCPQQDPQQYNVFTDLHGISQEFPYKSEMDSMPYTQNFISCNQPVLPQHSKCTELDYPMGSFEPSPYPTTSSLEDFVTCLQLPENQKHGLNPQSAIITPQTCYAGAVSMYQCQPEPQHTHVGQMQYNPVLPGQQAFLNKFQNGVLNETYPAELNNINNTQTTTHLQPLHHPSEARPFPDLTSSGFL
Assay: AhR direct luciferase reporter assay in HepG2 cells (HepG2 CYP1A1-LUC)
Assay type: cell-based
Conditions: 18 hours, luciferase activity, no exogenous AhR agonist or 10 nM VAF347, read-out: AhR potency (AhR antagonistic potency, IC50)
From the text: AhR direct luciferase reporter assay in HepG2 cells.
A stable cell line (HepG2 CYP1A1-LUC) was used in which part of the promoter region of the human CYP1A1 gene is stably integrated into the genome of human HepG2 hepatocytes (DSZM #ACC 180) in front of a Photinus pyralis Firefly Luciferase gene. A 1210 bp fragment comprising part of the human CYP1A1 promoter was isolated via SacI and BglII restriction digestion from Lightswitch Clone S714555 (SwitchGearGenomics) and inserted between the SacI and BglII sites in pGL4.30 (Promega #E8481) in front of the Firefly Luciferase gene. The resulting vector was linearized with NotI, transfected into HepG2 cells (DSMZ #ACC 180) and stably transfected clones selected with 250 μg/ml Hygromycin B. After repetitive rounds of subcloning and testing for robustly regulated luciferase activity after AhR agonist stimulation, a stable clonal HepG2 CYP1A1-Luc cell line was selected.
The HepG2 CYP1A1-Luc cells do express basal luciferase activity that can be increased via potent AhR agonists or decreased via potent AhR antagonists, added to the growth medium of the cells.
In typical reporter assays performed with this cell line, cells are grown in 96-well plates and AhR modulators are titrated into the growth medium in serial dilutions in RPMI-1640 Medium (Sigma #R7509) supplemented with 8.6% fetal calf serum (Sigma #F7524) and containing either no exogenous AhR agonist or 10 nM of the potent AhR agonist VAF347 (Calbiochem #182690). Cells are further cultivated for 18 hours and luciferase activities are determined from extracts of cells in buffers containing D-Luciferine and ATP using a LUMIstar Optima microplate Luminometer from BMG Labtech.

Row | IC50 | SMILES
1 | < 100 nM | Cc1ccccc1-c1cc2cnc(NC(=O)c3ncnn3C)cc2[nH]1 [2/1]
2 | 100 to 1000 nM | Cn1ncnc1C(=O)Nc1cc2[nH]c(-c3c(Cl)cccc3Cl)cc2cn1 [2/2]
3 | < 100 nM | Cn1ncnc1C(=O)Nc1cc2[nH]c(-c3ccccc3C(F)F)c(F)c2cn1 [2/3]
4 | < 100 nM | Cn1ncnc1C(=O)Nc1cc2[nH]c(-c3ccccc3C(F)F)c(Cl)c2cn1 [2/4]
5 | 100 to 1000 nM | Cn1ncnc1C(=O)Nc1cc2[nH]c(-c3cc(C(F)F)ccc3F)cc2cn1 [2/5]
6 | < 100 nM | Cn1ncnc1C(=O)Nc1cc2[nH]c(-c3cc(C#N)ccc3C(F)(F)F)cc2cn1 [2/6]
7 | > 1000 nM | Cn1ncnc1C(=O)Nc1cc2[nH]c(-c3ccccc3C(C)(C)O)cc2cn1 [2/7]
8 | 100 to 1000 nM | Cn1cncc1C(=O)Nc1cc2[nH]c(-c3ccccc3C(F)F)cc2cn1 [4/1]
9 | < 100 nM | Cn1ccnc1C(=O)Nc1cc2[nH]c(-c3ccccc3C(F)F)cc2cn1 [4/2]
10 | < 100 nM | Cc1ocnc1C(=O)Nc1cc2[nH]c(-c3ccccc3C(F)F)cc2cn1 [4/3]
11 | 100 to 1000 nM | Cc1ccccc1-c1cc2cnc(NC(=O)c3ccnn3C)cc2[nH]1 [Example 1, 1-Methyl-N-(2-(o-tolyl)-1H-pyrrolo[3,2-c]pyridin-6-yl)-1H-pyrazole-5-carboxamide]
12 | < 100 nM | Cn1nccc1C(=O)Nc1cc2[nH]c(-c3ccccc3C(F)(F)F)cc2cn1 [Example 1/1, 1-Methyl-N-(2-(2-(trifluoromethyl)phenyl)-1H-pyrrolo[3,2-c]pyridin-6-yl)-1H-pyrazole-5-carboxamide]
13 | < 100 nM | Cn1ncnc1C(=O)Nc1cc2[nH]c(-c3ccccc3C(F)(F)F)cc2cn1 [Example 1/2, 1-Methyl-N-(2-(2-(trifluoromethyl)phenyl)-1H-pyrrolo[3,2-c]pyridin-6-yl)-1H-1,2,4-triazole-5-carboxamide]
14 | < 100 nM | O=C(Nc1cc2[nH]c(-c3ccccc3C(F)(F)F)cc2cn1)c1ccccn1 [Example 1/3, N-(2-(2-(Trifluoromethyl)phenyl)-1H-pyrrolo[3,2-c]pyridin-6-yl) picolinamide]
15 | < 100 nM | Cn1ncnc1C(=O)Nc1cc2[nH]c(-c3cc(F)ccc3C(F)(F)F)cc2cn1 [Example 1/4, N-(2-(5-Fluoro-2-(trifluoromethyl)phenyl)-1H-pyrrolo[3,2-c]pyridin-6-yl)-1-methyl-1H-1,2,4-triazole-5-carboxamide]
16 | > 1000 nM | Cn1cnnc1C(=O)Nc1cc2[nH]c(-c3ccccc3C(F)F)cc2cn1 [Example 1/5, N-(2-(2-(Difluoromethyl)phenyl)-1H-pyrrolo[3,2-c]pyridin-6-yl)-4-methyl-4H-1,2,4-triazole-3-carboxamide]
17 | < 100 nM | Cn1ncnc1C(=O)Nc1cc2[nH]c(-c3ccccc3C(F)F)cc2cn1 [Example 1/6, N-(2-(2-(Difluoromethyl)phenyl)-1H-pyrrolo[3,2-c]pyridin-6-yl)-1-methyl-1H-1,2,4-triazole-5-carboxamide]
18 | < 100 nM | Cn1cnnc1C(=O)Nc1cc2[nH]c(-c3cc(F)ccc3C(F)(F)F)cc2cn1 [Example 1/7, N-(2-(5-Fluoro-2-(trifluoromethyl)phenyl)-1H-pyrrolo[3,2-c]pyridin-6-yl)-4-methyl-4H-1,2,4-triazole-3-carboxamide]
19 | < 100 nM | Cn1ncnc1C(=O)Nc1cc2[nH]c(-c3cc(F)ccc3C(F)F)cc2cn1 [Example 1/8, N-(2-(2-(Difluoromethyl)-5-fluorophenyl)-1H-pyrrolo[3,2-c]pyridin-6-yl)-1-methyl-1H-1,2,4-triazole-5-carboxamide]
20 | 100 to 1000 nM | Cn1ncnc1C(=O)Nc1cc2[nH]c(-c3ccoc3C(F)F)cc2cn1 [Example 1/9, N-(2-(2-(Difluoromethyl)furan-3-yl)-1H-pyrrolo[3,2-c]pyridin-6-yl)-1-methyl-1H-1,2,4-triazole-5-carboxamide]
21 | < 100 nM | Cn1ncnc1C(=O)Nc1cc2[nH]c(-c3cc(C(F)(F)F)ccc3C(F)(F)F)cc2cn1 [Example 1/10, N-(2-(2,5-Bis(trifluoromethyl)phenyl)-1H-pyrrolo[3,2-c]pyridin-6-yl)-1-methyl-1H-1,2,4-triazole-5-carboxamide]
22 | < 100 nM | Cn1ncnc1C(=O)Nc1cc2[nH]c(-c3cc(C4CC4)ccc3C(F)(F)F)cc2cn1 [Example 1/11, N-(2-(5-Cyclopropyl-2-(trifluoromethyl)phenyl)-1H-pyrrolo[3,2-c]pyridin-6-yl)-1-methyl-1H-1,2,4-triazole-5-carboxamide]
23 | 100 to 1000 nM | Cn1ncnc1C(=O)Nc1cc2[nH]c(-c3cc(F)c(F)cc3C(F)F)cc2cn1 [Example 1/12, N-(2-(2-(Difluoromethyl)-4,5-difluorophenyl)-1H-pyrrolo[3,2-c]pyridin-6-yl)-1-methyl-1H-1,2,4-triazole-5-carboxamide]
24 | < 100 nM | CCc1ccc(C(F)(F)F)c(-c2cc3cnc(NC(=O)c4ncnn4C)cc3[nH]2)c1 [Example 1/13, N-(2-(5-Ethyl-2-(trifluoromethyl)phenyl)-1H-pyrrolo[3,2-c]pyridin-6-yl)-1-methyl-1H-1,2,4-triazole-5-carboxamide]
25 | 100 to 1000 nM | CC(C)c1ccccc1-c1cc2cnc(NC(=O)c3ncnn3C)cc2[nH]1 [Example 2, N-(2-(2-Isopropylphenyl)-1H-pyrrolo[3,2-c]pyridin-6-yl)-1-methyl-1H-1,2,4-triazole-5-carboxamide]
26 | 100 to 1000 nM | CN(C(=O)c1ncnn1C)c1cc2[nH]c(-c3cc(F)ccc3C(F)F)cc2cn1 [Example 3, N-(2-(2-(Difluoromethyl)-5-fluorophenyl)-1H-pyrrolo[3,2-c]pyridin-6-yl)-N,1-dimethyl-1H-1,2,4-triazole-5-carboxamide]
27 | < 100 nM | Cc1scnc1C(=O)Nc1cc2[nH]c(-c3ccccc3C(F)F)cc2cn1 [Example 4, N-(2-(2-(Difluoromethyl)phenyl)-1H-pyrrolo[3,2-c]pyridin-6-yl)-5-methylthiazole-4-carboxamide]
28 | 100 to 1000 nM | Cn1ncnc1C(=O)Nc1cc2[nH]c(-c3ccccc3C(F)F)c(C#N)c2cn1 [Example 5, N-(3-Cyano-2-(2-(difluoromethyl)phenyl)-1H-pyrrolo[3,2-c]pyridin-6-yl)-1-methyl-1H-1,2,4-triazole-5-carboxamide]

— US11376241B2, “Aryl hydrocarbon receptor (AhR) modulator compounds” (PHENEX PHARMACEUTICALS AG, priority 2017, dated 2022)
